Test results: ChEMBL document CHEMBL1201862, “PubChem BioAssay data set” (2004)
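Step 1: Grow cells in 96-well plates. Step 2: Expose to compound for 48 hours at 5 concentrations. Step 3: Interpolate endpoints linearly; if unreached, use highest concentration. Abbreviation: GI50, concentration required for 50% inhibition of growth.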 Activity calls are given as the source filed them. Rule as the data show it: active = GI50 up to about 1.1 µM and inactive = higher.

Assays:
Assay in all cases: DTP human tumour cell line panel, 48 h
HT-29 = test system: HT-29
MDA-MB-435 = test system: MDA-MB-435
MCF7 = test system: MCF7
U-251 = test system: U-251
SK-MEL-2 = test system: SK-MEL-2
NCI-H23 = test system: NCI-H23
MOLT-4 = test system: MOLT-4
SF-268 = test system: SF-268
KM12 = test system: KM12
EKVX = test system: EKVX
M14 = test system: M14
CAKI-1 = test system: CAKI-1
TK-10 = test system: TK-10
A498 = test system: A498
MDA-MB-231 = test system: MDA-MB-231
NCI-H226 = test system: NCI-H226
786-0 = test system: 786-0
OVCAR-8 = test system: OVCAR-8
HOP-92 = test system: HOP-92
OVCAR-4 = test system: OVCAR-4

Row | SMILES | GI50 (HT-29) | GI50 (MDA-MB-435) | GI50 (MCF7) | GI50 (U-251) | GI50 (SK-MEL-2) | GI50 (NCI-H23) | GI50 (MOLT-4) | GI50 (SF-268) | GI50 (KM12) | GI50 (EKVX) | GI50 (M14) | GI50 (CAKI-1) | GI50 (TK-10) | GI50 (A498) | GI50 (MDA-MB-231) | GI50 (NCI-H226) | GI50 (786-0) | GI50 (OVCAR-8) | GI50 (HOP-92) | GI50 (OVCAR-4)
1 | CN(C)CCNCCN | > 100 µM (inactive) | > 100 µM (inactive) | > 100 µM (inactive) | > 100 µM (inactive) | > 100 µM (inactive) | > 100 µM (inactive) | > 100 µM (inactive) | > 100 µM (inactive) | > 100 µM (inactive) | > 100 µM (inactive) | > 100 µM (inactive) | > 100 µM (inactive) | > 100 µM (inactive) | > 100 µM (inactive) | > 100 µM (inactive) | > 100 µM (inactive) | > 100 µM (inactive) | > 100 µM (inactive) | > 100 µM (inactive) | > 100 µM (inactive)
2 | OCc1cc2c([nH]c3ccccc32)c(C(O)CO)n1 (stereo not given) | > 100 µM (inactive) | > 100 µM (inactive) | > 100 µM (inactive) | > 100 µM (inactive) | > 100 µM (inactive) | > 100 µM (inactive) | > 100 µM (inactive) | > 100 µM (inactive) | > 100 µM (inactive) | > 100 µM (inactive) | > 100 µM (inactive) | > 100 µM (inactive) | > 100 µM (inactive) | > 100 µM (inactive) | > 100 µM (inactive) | > 100 µM (inactive) | > 100 µM (inactive) | > 100 µM (inactive) | > 100 µM (inactive) | > 100 µM (inactive)
3 | COc1cccc2c1-c1c(OC)cccc1SS2 | 17.3 µM (inactive) | 3.73 µM (inactive) | 20.3 µM (inactive) | 15.7 µM (inactive) | 17.5 µM (inactive) | 18.6 µM (inactive) | 13.4 µM (inactive) | 22.6 µM (inactive) | 34 µM (inactive) | 13.1 µM (inactive) | 27 µM (inactive) | 25.2 µM (inactive) | 21.9 µM (inactive) | 8.75 µM (inactive) | 23.7 µM (inactive) | 16 µM (inactive) | 18.2 µM (inactive) | 25.9 µM (inactive) | 19.9 µM (inactive) | 21.8 µM (inactive)
4 | C=CCOc1ccc(C(=N/NC(=O)c2ccccc2)/N=N/c2ccc(C)cc2)cc1OC | 20.3 µM (inactive) | 19.5 µM (inactive) | 35.1 µM (inactive) | 10.4 µM (inactive) | 23.2 µM (inactive) | 20.2 µM (inactive) | 26.5 µM (inactive) | 52.7 µM (inactive) | 18.1 µM (inactive) | 30.9 µM (inactive) | 22.7 µM (inactive) | 40.8 µM (inactive) | 30 µM (inactive) | 25.6 µM (inactive) | 24.4 µM (inactive) | 20.6 µM (inactive) | 33.9 µM (inactive) | 25.4 µM (inactive) | 8.79 µM (inactive) | 37.9 µM (inactive)
5 | COc1cc2c(cc1O)C1Cc3ccc(OC)c(O)c3C(C2)N1C (stereo not given) | 71 µM (inactive) | > 100 µM (inactive) | > 100 µM (inactive) | > 100 µM (inactive) | > 100 µM (inactive) | > 100 µM (inactive) | 58.1 µM (inactive) | > 100 µM (inactive) | > 100 µM (inactive) | > 100 µM (inactive) | > 100 µM (inactive) | > 100 µM (inactive) | > 100 µM (inactive) | > 100 µM (inactive) | 41.5 µM (inactive) | > 100 µM (inactive) | > 100 µM (inactive) | > 100 µM (inactive) | 17.5 µM (inactive) | > 100 µM (inactive)
6 | CC(=O)O[C@H]1[C@@H](OC2CCCC2(c2ccccc2)c2ccccc2)O[N+]([O-])=C[C@@H]1c1ccccc1 (stereo not given in full) | 2.51 µM (inactive) | 3.34 µM (inactive) | 3.48 µM (inactive) | 7.83 µM (inactive) | 8.57 µM (inactive) | 11.9 µM (inactive) | 2.63 µM (inactive) | 5.01 µM (inactive) | 11.3 µM (inactive) | 13.4 µM (inactive) | 6.18 µM (inactive) | 4.85 µM (inactive) | 9.71 µM (inactive) | 8.22 µM (inactive) | 12.6 µM (inactive) | 20.7 µM (inactive) | 1.86 µM (inactive) | 2.47 µM (inactive) | 5.92 µM (inactive) | 6.46 µM (inactive)
7 | COc1ccc(/C=N/N=C(\N)NO)c(OC)c1OC | 20.8 µM (inactive) | 57.7 µM (inactive) | 11.5 µM (inactive) | 42.1 µM (inactive) | 25.6 µM (inactive) | 31.3 µM (inactive) | 42.3 µM (inactive) | 24.7 µM (inactive) | 4.69 µM (inactive) | 16.6 µM (inactive) | 44.4 µM (inactive) | 54.3 µM (inactive) | 71.1 µM (inactive) | 26.7 µM (inactive) | 65.2 µM (inactive) | 23.4 µM (inactive) | 18.5 µM (inactive) | 15 µM (inactive) | 11.1 µM (inactive) | 53.7 µM (inactive)
8 | N#CC1=C(N)N2C(=O)/C(=C/c3ccccc3O)N=C2S1 | 37.7 µM (inactive) | > 100 µM (inactive) | 48.1 µM (inactive) | > 100 µM (inactive) | > 100 µM (inactive) | 95.3 µM (inactive) | 18.5 µM (inactive) | 41.1 µM (inactive) | > 100 µM (inactive) | 51.9 µM (inactive) | 49.9 µM (inactive) | 51.5 µM (inactive) | > 100 µM (inactive) | > 100 µM (inactive) | > 100 µM (inactive) | > 100 µM (inactive) | > 100 µM (inactive) | > 100 µM (inactive) | > 100 µM (inactive) | 44.5 µM (inactive)
9 | CN(/N=C/c1ccccc1C(=O)O)C1=NCCCCN1 | > 100 µM (inactive) | > 100 µM (inactive) | > 100 µM (inactive) | > 100 µM (inactive) | > 100 µM (inactive) | > 100 µM (inactive) | > 100 µM (inactive) | > 100 µM (inactive) | > 100 µM (inactive) | > 100 µM (inactive) | > 100 µM (inactive) | > 100 µM (inactive) | > 100 µM (inactive) | > 100 µM (inactive) | > 100 µM (inactive) | > 100 µM (inactive) | > 100 µM (inactive) | > 100 µM (inactive) | > 100 µM (inactive) | > 100 µM (inactive)
10 | COC(=O)C(=O)C(C(=O)C(=O)Nc1cccc(OC)c1)c1nc2ccc(Cl)cc2nc1O (stereo not given) | > 100 µM (inactive) | 83.6 µM (inactive) | > 100 µM (inactive) | > 100 µM (inactive) | > 100 µM (inactive) | > 100 µM (inactive) | > 100 µM (inactive) | > 100 µM (inactive) | > 100 µM (inactive) | 27.6 µM (inactive) | > 100 µM (inactive) | > 100 µM (inactive) | > 100 µM (inactive) | > 100 µM (inactive) | > 100 µM (inactive) | > 100 µM (inactive) | > 100 µM (inactive) | > 100 µM (inactive) | 74.5 µM (inactive) | > 100 µM (inactive)
11 | C/C=C/[P+](c1ccccc1)(c1ccccc1)c1ccccc1 | 0.914 µM (active) | 0.277 µM (active) | 1.18 µM (inactive) | 0.102 µM (active) | 1.82 µM (inactive) | 2.06 µM (inactive) | 2.42 µM (inactive) | 1.54 µM (inactive) | 0.277 µM (active) | 0.296 µM (active) | 4.92 µM (inactive) | > 68.1 µM (inactive) | 0.787 µM (active) | 6.58 µM (inactive) | 2.58 µM (inactive) | 3.57 µM (inactive) | 7.33 µM (inactive) | 0.426 µM (active) | 0.738 µM (active) | 2.77 µM (inactive)
12 | CC(=O)OC12CC[N+]3(C)CCCCC3C1=Nc1ccccc12 (stereo not given) | 63.8 µM (inactive) | > 100 µM (inactive) | > 100 µM (inactive) | > 100 µM (inactive) | > 100 µM (inactive) | > 100 µM (inactive) | > 100 µM (inactive) | > 100 µM (inactive) | 82.8 µM (inactive) | 17.4 µM (inactive) | > 100 µM (inactive) | > 100 µM (inactive) | > 100 µM (inactive) | 80.2 µM (inactive) | > 100 µM (inactive) | > 100 µM (inactive) | > 100 µM (inactive) | > 100 µM (inactive) | > 100 µM (inactive) | > 100 µM (inactive)
13 | CCCCCCCCCCCCCCCCOCC(Cl)CP(=O)(O)OP(=O)(O)OCC1OC(n2cnc3c(N)ncnc32)C(O)C1O (stereo not given) | > 100 µM (inactive) | > 100 µM (inactive) | > 100 µM (inactive) | 74 µM (inactive) | > 100 µM (inactive) | > 100 µM (inactive) | > 100 µM (inactive) | > 100 µM (inactive) | > 100 µM (inactive) | > 100 µM (inactive) | > 100 µM (inactive) | > 100 µM (inactive) | > 100 µM (inactive) | > 100 µM (inactive) | > 100 µM (inactive) | > 100 µM (inactive) | > 100 µM (inactive) | > 100 µM (inactive) | > 100 µM (inactive) | > 100 µM (inactive)
14 | C=C1C(=O)O[C@@H]2/C=C(/C)[C@@H](OC(C)=O)C[C@@H](O)/C(C)=C\[C@@H](OC(=O)[C@]3(C)O[C@@H]3C)[C@@H]12 | 15.8 µM (inactive) | 15.3 µM (inactive) | 5.79 µM (inactive) | 17.5 µM (inactive) | 17.2 µM (inactive) | 17.3 µM (inactive) | 3.91 µM (inactive) | 18.9 µM (inactive) | 17.5 µM (inactive) | 11 µM (inactive) | 12.5 µM (inactive) | 3.48 µM (inactive) | 15.6 µM (inactive) | 18.1 µM (inactive) | 16.3 µM (inactive) | 40.4 µM (inactive) | 4.57 µM (inactive) | 13.1 µM (inactive) | 12.7 µM (inactive) | 21.9 µM (inactive)
